Read-outs that look alike come from different tables or passages of the source.
Legend:
[1] = RAW264.7 cell viability (MTT) alongside the NO assay; settings: RAW264.7 cells
Protocol: (§1) RAW264.7 cells were cultured in Dulbecco’s modified essential medium (DMEM, Gibco). The cells were incubated at 37 °C in DMEM with 10% fetal bovine serum (FBS, Gibco), penicillin (100 U/mL, Gibco), and streptomycin sulfate (100 μg/mL, Gibco) under a humidified atmosphere containing 5% CO2. Briefly, 2 × 10^4 cells/well treated for 24 h with vehicle or compounds were examined for cell viability based on the MTT (3-(4,5-dimethylthiazol-2-yl)-2,5-diphenyltetrazolium bromide assay) method.[60] Survival of macrophage cells after treatment with compounds was measured at a wavelength of 570 nm.
(§2) RAW264.7 cells (2 × 10^4 cells/well) were stimulated with or without 1 μg/mL lipopolysaccharide (LPS, Sigma) for 24 h in the presence or absence of the test compounds at different concentrations. Afterward, 100 μL of the cell culture supernatant was mixed with 100 μL of Griess reagent.[61] The remaining cells from the Griess assay were then utilized to determine their viability by using the MTT colorimetric assay described above.

[2] = system: NO production in LPS-stimulated RAW264.7 cells; test: Inhibition of nitric oxide (NO) production in LPS-stimulated RAW264.7 cells (Griess reagent); format: cell-based; settings: 1 μg/mL LPS, read-out: IC50 value, NO production inhibitory effect
Protocol: as §1, §2

[3] = HepG2 cytotoxicity test (MTT, 48 h); settings: human, HepG2 cells
Protocol: (§3) Human hepatocellular carcinoma HepG2 cells were cultured in DMEM (Gibco) supplemented with 10% FBS (Gibco) and 1% antibiotic–antimycotic (Gibco, 15240062). Once cells reached approximately 80% confluence, they were washed with PBS and detached using trypsin-EDTA (Gibco, 25200072) at 37 °C for 5 min. Cells were then seeded into 96-well plates at a density of 3 × 10^4 cells per well (100 μL/well) and incubated for 24 h at 37 °C in a humidified atmosphere with 5% CO2.
(§4) After the initial incubation, the medium was replaced with 100 μL of fresh medium containing the test compounds, and the cells were incubated for an additional 48 h. Cell viability was determined using the MTT assay, following standard protocols with untreated cells serving as the control. The percentage of cell viability was calculated using the following formula: % viability = [(number of viable cells)/(total cells)] × 100. The concentration of the test compounds was set at 80 μM for the screening.

in vitro [4] = test: in vitro
Protocol: as §1, §2

in vitro [5] = settings: human
Protocol: as §3, §4

[6] = Hepatoprotective effect in acetaminophen-induced hepatotoxicity in HepG2 cell model (MTT); format: cell-based; settings: human, HepG2 cells, HepG2, 6 mM APAP, control without APAP 100%, read-out: Cell viability, treated only with acetaminophen (APAP)
Protocol: Compounds that maintained cell viability above 80% were subsequently tested for their hepatoprotective properties using an acetaminophen-induced hepatotoxicity model in HepG2 cells. […] Afterward, the cells were treated with the test compounds. Eight hours later, hepatotoxicity was induced by adding acetaminophen (6 mM, Sigma-Aldrich A7085) to the wells. Cell viability was measured using the MTT assay 36 h after acetaminophen exposure, and the results were used to assess the hepatoprotective effects of the compounds.

Row | IC50 ([2]; Mus musculus, RAW264.7, 24 h) | Compound | viability at 48 h, 80 µM [1] | viability at 48 h, 80 µM [3] | further results
1 | 9.19 µM | COC(=O)C1=CO[C@@H](O[C@@H]2O[C@H](CO[C@H]3O[C@H](CO)[C@H](O)[C@H](O)[C@H]3O)[C@@H](O)[C@H](O)[C@H]2O)[C@@H]2[C@@H](C)[C@@H](O)C[C@H]12 [Compound 1, loganin 6′-O-α-D-galactopyranoside] | 97.7 ± 2.3% | – | IC50 ([2]; 24 h): 9.18 ± 0.3 µM
2 | 23.8 ± 2.6 µM | C=C[C@H]1[C@H](O[C@@H]2O[C@H](CO)C(O)[C@H](O)[C@H]2O)OC=C(C(=O)O[C@H]2C[C@@H]3CCOC(=O)[C@@H]3[C@H]2C)[C@H]1CC(OC)OC (stereo partly shown) [Compound 3, gomphandranoside C] | 103 ± 3.5% | > 80% | –
3 | 19.5 ± 0.3 µM | C=C[C@H]1[C@H](O[C@@H]2O[C@H](CO)[C@@H](O)[C@H](O)[C@H]2O)OC=C(C(=O)O[C@H]2C[C@@H]3C(C(=O)OC)=CO[C@@H](O[C@@H]4O[C@H](CO)[C@@H](O)[C@H](O)[C@H]4O)[C@@H]3[C@H]2C)[C@H]1C[C@H]1OC[C@H]2O[C@H](OC[C@H]3O[C@@](CO)(O[C@H]4O[C@H](CO)[C@@H](O)[C@H](O)[C@H]4O)[C@@H](O)[C@@H]3O)[C@H](O)[C@@H](O)[C@H]2O1 [Compound 4, gomphandranoside D] | 95.1 ± 2.8% | > 80% | –
4 | 17.7 ± 0.4 µM | C=C[C@H]1[C@H](O[C@@H]2O[C@H](CO)[C@@H](O)[C@H](O)[C@H]2O)OC=C(C(=O)O[C@H]2C[C@@H]3C(C(=O)OC)=CO[C@@H](O[C@@H]4O[C@H](CO)[C@@H](O)[C@H](O)[C@H]4O)[C@@H]3[C@H]2C)[C@H]1C[C@H]1OC[C@H]2O[C@H](OC[C@H]3O[C@](O)(CO)[C@@H](O)[C@@H]3O)[C@H](O)[C@@H](O)[C@H]2O1 [Compound 5, gomphandranoside E] | 98.9 ± 3.1% | > 80% | –
5 | 20.2 ± 1.1 µM | C=C[C@H]1[C@H](O[C@@H]2O[C@H](CO)[C@@H](O)[C@H](O)[C@H]2O)OC=C(C(=O)O[C@H]2C[C@@H]3C(C(=O)OC)=CO[C@@H](O[C@@H]4O[C@H](CO)[C@@H](O)[C@H](O)[C@H]4O)[C@@H]3[C@H]2C)[C@H]1C[C@@H]1O[C@@H]2[C@@H](O)[C@@H](OC[C@H]3O[C@@](CO)(O[C@H]4O[C@H](CO)[C@@H](O)[C@H](O)[C@H]4O)[C@@H](O)[C@@H]3O)O[C@H](CO)[C@@H]2O1 [Compound 6, gomphandranoside F] | 94.6 ± 4.5% | > 80% | –
6 | 14.7 ± 0.9 µM | C=C[C@H]1[C@H](O[C@@H]2O[C@H](CO)[C@@H](O)[C@H](O)[C@H]2O)OC=C(C(=O)O[C@H]2C[C@@H]3CCOC(=O)[C@@H]3[C@H]2C)[C@H]1C[C@@H](O)O[C@@H](O)C[C@@H]1C(C(=O)O[C@H]2C[C@@H]3CCOC(=O)[C@@H]3[C@H]2C)=CO[C@@H](O[C@@H]2O[C@H](CO)[C@@H](O)[C@H](O)[C@H]2O)[C@@H]1C=C [Compound 7, gomphandranoside G] | 95.3 ± 2.4% | > 80% | –
7 | 14.4 ± 1.2 µM | C=C[C@@H]1[C@H](O[C@@H]2O[C@H](CO)[C@@H](O)[C@H](O)[C@H]2O)OC=C(C(=O)O[C@H]2C[C@@H]3C(C(=O)OC)=CO[C@H](O[C@@H]4O[C@H](CO)[C@@H](O)[C@H](O)[C@H]4O)[C@@H]3[C@H]2C)[C@@H]1/C(C=O)=C\C[C@H]1C(C(=O)O[C@H]2C[C@@H]3CCOC(=O)[C@@H]3[C@H]2C)=CO[C@@H](O[C@@H]2O[C@H](CO)[C@@H](O)[C@H](O)[C@H]2O)[C@H]1C=C [Compound 8, gomphandranoside H] | 100 ± 2.5% | – | –
8 | 12.9 ± 0.5 µM | C=C[C@H]1[C@H](O[C@@H]2O[C@H](CO)[C@@H](O)[C@H](O)[C@H]2O)OC=C(C(=O)O[C@H]2C[C@@H]3C(C(=O)OC)=CO[C@@H](O[C@@H]4O[C@H](CO)[C@@H](O)[C@H](O)[C@H]4O)[C@@H]3[C@H]2C)[C@H]1C1=CO[C@H]2C[C@@H]1C[C@@H]1C(C(=O)O[C@H]3C[C@@H]4C(C(=O)OC)=CO[C@@H](O[C@@H]5O[C@H](CO)[C@@H](O)[C@H](O)[C@H]5O)[C@@H]4[C@H]3C)=CO[C@@H](O[C@@H]3O[C@H](CO)[C@@H](O)[C@H](O)[C@H]3O)[C@H]21 [Compound 9, gomphandranoside I] | 98.3 ± 2.6% | > 80% | –
9 | 12.2 ± 1.1 µM | C=C[C@H]1[C@H](O[C@@H]2O[C@H](CO)[C@@H](O)[C@H](O)[C@H]2O)OC=C(C(=O)O[C@H]2C[C@@H]3C(C(=O)OC)=CO[C@@H](O[C@H]4O[C@H](CO)[C@@H](O)[C@H](O)[C@H]4O)[C@@H]3[C@H]2C)[C@H]1C1=COC[C@@H]2[C@H]3[C@@H](O[C@@H]4O[C@H](CO)[C@@H](O)[C@H](O)[C@H]4O)OC=C(C(=O)O[C@H]4C[C@@H]5C(C(=O)OC)=CO[C@@H](OC6O[C@H](CO)[C@@H](O)[C@H](O)[C@H]6O)[C@@H]5[C@H]4C)[C@H]3C[C@H]12 (stereo partly shown) [Compound 10, gomphandranoside K] | 96.7 ± 1.5% | – | –
10 | 26.2 ± 1.3 µM | C=CC1C(CC(OC)OC)C(C(=O)O[C@H]2CC3C(C(=O)OC)=CO[C@@H](O[C@@H]4O[C@H](CO)[C@@H](O)[C@H](O)[C@H]4O)C3[C@H]2C)=CO[C@H]1O[C@@H]1O[C@H](CO)[C@@H](O)[C@H](O)[C@H]1O (stereo partly shown) [Compound 11, cantleyoside-dimethyl-acetal] | 94.8 ± 3.7% | > 80% | –
11 | 23.1 ± 1.7 µM | C=CC1C(CC=O)C(C(=O)O[C@H]2CC3C(C(=O)OC)=CO[C@@H](O[C@@H]4O[C@H](CO)[C@@H](O)[C@H](O)[C@H]4O)C3[C@H]2C)=CO[C@H]1O[C@@H]1O[C@H](CO)[C@@H](O)[C@H](O)[C@H]1O (stereo partly shown) [Compound 12, cantleyoside] | – | – | –
12 | – | C=C[C@H]1[C@H](O[C@@H]2O[C@H](CO)[C@@H](O)[C@H](O)[C@H]2O)OC=C(C(=O)O[C@H]2C[C@@H]3C(C(=O)OC)=CO[C@@H](O[C@@H]4O[C@H](CO)[C@@H](O)[C@H](O)[C@H]4O)[C@@H]3[C@H]2C)[C@H]1CC=O [Compound 12, cantleyoside] | 93.9 ± 2.5% | > 80% | –
13 | – | C=C[C@H]1[C@H](O[C@@H]2O[C@H](CO)[C@@H](O)[C@H](O)[C@H]2O)OC=C2C(=O)OCC[C@H]21 [Compound 13, sweroside] | – | – | viability at 48 h, 80 µM (in vitro [4]): 94.7 ± 4.2%; IC50 ([2]; Mus musculus, 24 h): 36 ± 1.6 µM; viability at 48 h, 80 µM (in vitro [5]): > 80%
14 | 6.13 ± 0.5 µM | C=C[C@H]1[C@H](O[C@@H]2O[C@H](CO)[C@@H](O)[C@H](O)[C@H]2O)OC=C(C(=O)O[C@H]2C[C@@H]3C(C(=O)OC)=CO[C@@H](O[C@@H]4O[C@H](CO)[C@@H](O)[C@H](O)[C@H]4O)[C@@H]3[C@@H]2C)[C@H]1/C=C(\C=O)[C@@H]1C(C(=O)O[C@@H]2C[C@@H]3C(C(=O)OC)=CO[C@@H](O[C@@H]4O[C@H](CO)[C@@H](O)[C@H](O)[C@H]4O)[C@@H]3[C@@H]2C)=CO[C@@H](O[C@@H]2O[C@H](CO)[C@@H](O)[C@H](O)[C@H]2O)[C@@H]1C=C [Compound 15, dipsanoside A] | 99.5 ± 3.6% | > 80% | –
15 | 17 ± 1.1 µM | C=C[C@H]1[C@H](O[C@@H]2O[C@H](CO)[C@@H](O)[C@H](O)[C@H]2O)OC=C(C(=O)O[C@H]2C[C@@H]3C(C(=O)OC)=CO[C@@H](O[C@@H]4O[C@H](CO)[C@@H](O)[C@H](O)[C@H]4O)[C@@H]3[C@H]2C)[C@H]1C[C@@H]1N[C@H](C(=O)O)Cc2c1[nH]c1ccccc21 [Compound 16, dipsaperine] | 95.2 ± 2.1% | > 80% | –
16 | 14.4 ± 1.5 µM | C=C[C@H]1[C@H](O[C@@H]2O[C@H](CO)[C@@H](O)[C@H](O)[C@H]2O)OC=C(C(=O)O[C@H]2C[C@@H]3C(C(=O)OC)=CO[C@@H](O[C@@H]4O[C@H](CO)[C@@H](O)[C@H](O)[C@H]4O)[C@@H]3[C@@H]2C)[C@H]1/C=C(\C=O)[C@@H]1C(C(=O)O[C@H]2C[C@@H]3C(C(=O)OC)=CO[C@@H](O[C@@H]4O[C@H](CO)[C@@H](O)[C@H](O)[C@H]4O)[C@@H]3[C@H]2C)=CO[C@@H](O[C@@H]2O[C@H](CO)[C@@H](O)[C@H](O)[C@H]2O)[C@@H]1C=C [Compound 17, dipsanoside B] | 94.2 ± 4.6% | > 80% | –
17 | 51.1 ± 1.8 µM | COC(=O)C1=CO[C@@H](O[C@@H]2O[C@H](CO)[C@@H](O)[C@H](O)[C@H]2O)[C@@H]2[C@@H](C)[C@@H](O)C[C@H]12 [Compound 18, loganin] | 98.1 ± 4% | > 80% | –
18 | – | CC(=O)Nc1ccc(O)cc1 [acetaminophen (APAP), acetaminophen] | – | – | viability at 36 h, 6 mM [6]: 68.1%
19 | 9.08 ± 0.5 µM | C[C@@H]1C[C@H]2[C@@H]3CCC4=CC(=O)C=C[C@]4(C)[C@@]3(F)[C@@H](O)C[C@]2(C)[C@@]1(O)C(=O)CO [dexamethasone, reference compound] | – | – | viability at 48 h, 20 µM [1]: 96.3 ± 2.6%
